Reference: patent US7091243B2, “Anti-irritants” (Croda, Inc., priority 2001, dated 2006)

Key:
[1] = tested on: MDCK (Kidney, Canine) strain NBL-2 cells; experiment: Trans-Epithelial Permeability (TEP) Assay, intracellular leakage of sodium fluorescein; type: cell-based; settings: for anti-irritating activity: 3% ester in shampoo base, Table 7; for anti-irritating activity, comparison between esters: referring to Table 4, 5% ester
Source text: The test methodology for measuring the irritation potential of alkoxylated esters is Trans-Epithelial Permeability (TEP) Assay. The TEP Assay measures intracellular leakage of a suitable marker reagent, such as sodium fluorescein, through cells that were exposed to irritant-containing compositions. Smaller leakage indicates lower degree of cell damage. If the cells are exposed to an irritant-containing composition with and without an anti-irritant, the magnitude of reduction in the intracellular leakage measures the anti-irritating ability of the anti-irritant. For additional discussion of the TEP Assay, see Tchao, R., Trans-Epithelial Permeability of Fluorescein In Vitro As An Assay To Determine Eye Irritants, Progress in In Vitro Toxicology, A M Goldberg ed., 6:271–283 (1988); Drewitt-Barlow, B., McPherson, J., Broyd, J. and Williamson, 2000. No Tears for Baby. Global Cosmetic Industry, (October, 2000): 16–20; Burke, J. and Joseph, L. B., 2000, In Vitro Analysis of the Irritation Mitigating Properties of PEG-150 Pentaerythrityl Tetrastearate, Society of Cosmetic Chemists, 2000 Technology Showcase, NY, N.Y., all of which are incorporated by reference herein.
The ingredients were dissolved in distilled water and pH was adjusted to 6.8 to 7.2. Sodium laurel ether sulfate (triethoxylated) is a known irritant. The irritation potentials of the compositions I, II, III and IV were measured using the TEP assay as follows.
MDCK (Kidney, Canine) strain NBL-2 purchased from American Type Culture Collection (CCL 34) were cultured under standard conditions. Three days prior to experimentation the cells were subcultured onto Corning 6.5 mm Transwell porous cell culture inserts at 1×10^5 cells per insert. Cells are grown to confluence in 3 days. The inserts were washed 5 times with phosphate buffered saline (PBS) immediately before testing. All reagents were made prior to experimentation, with the exception of the final dilutions with a saline solution, which were prepared on the day of the experiment.
The compositions I, II, III, and IV were diluted to 1:50 and 1:100 with Hanks Buffered Saline Solution (HBSS). For example, to prepare a 1:50 dilution of the test composition I, 1 part of the test composition I was mixed with 49 parts of HBSS. The diluted samples were placed on the ventral side of the insert (in duplicate) in direct contact with the cells for 15 minutes. Two inserts with HBSS were used as the negative control and inserts without cells were used as references of 100% leakage. After application of the test article, the inserts were washed with large amounts of PBS.
Sodium fluorescein was added directly to the cell monolayer and 1 ml of HBSS was placed in the well below. After 30 minutes of incubation at room temperature triplicate 200 μl samples were removed from the well and the optical density (OD) of the well fluid was determined. The experimental OD was then compared to the OD of 100% leakage reference (filter without cells), and provided a measure of irritation potential of the tested compositions.
The reductions in the irritation potential were calculated as the percentage of the absolute reduction relative to the control formulation (control is taken as 100%, and the percentages of reduction are calculated as 100% minus (observed leakage)/(observed leakage of control)×100%).

[2] = tested on: Epiocular™ Tissue Model (OCL-200); experiment: Epiocular Tissue Model (OCL-200) cell survival, MTT readout; type: cell-based; settings: 5% ester added to 10% SLS in PBS
Protocol: The following example illustrates the discovery of the anti-irritation activity of certain alkoxylated esters. A test composition A and a control composition B were prepared. The test composition A contained 5% of Di-PPG-3-PEG-4 Myristyl Ether Adipate, an alkoxylated (tripropoxy-tetraethoxy) diester of tripropoxy-tetraethoxy myristyl alcohol and adipic acid, and 10% of sodium laurel sulfate (SLS), a known irritant, in Phosphate Buffered Saline (PBS) at pH 6.8–7.2. The control composition B contained 10% SLS in PBS at the same pH without the alkoxylated ester. A separate solution of PBS (without SLS and the ester) was used as a negative control solution. The testing was carried out on Epiocular™, Tissue Model (OCL-200), from MatTek Corporation. Epiocular™ inserts were equilibrated overnight in assay media. Test composition A and B, and the negative control solution were then separately placed in direct contact with the cells. For each test substance, the progress of cell death was measured at 1, 5, and 10 minutes. The negative control inserts were exposed to phosphate buffered saline (PBS) for 10 minutes. The inserts were washed with PBS, equilibrated in Eagle's Minimal Essential Medium (EMEM) prior to incubation in MTT (3-[4,5-Dimethylthiazol-2-yl]-2,5-diphenyltetrazolium bromide), and extracted in isopropyl alcohol overnight. […]

Substance | anti-irritating activity [1] | anti-irritating activity, comparison between esters [1] | effect on cell death [2] | reduction in the irritation potential of the shampoo ([1]; 5% ester in J&J Baby Shampoo, Table 9)
Di-PPG-2-PEG-10 Myristyl Adipate | show anti-irritating activity | greater anti-irritating activity than Di-PPG-2-PEG-10 Lauryl Adipate | – | –
Di-PPG-2-PEG-10 Steareth Ether Adipate [Di-PPG-2-PEG-10 Steareth Adipate] | – | greater anti-irritating activity than Di-PPG-2-PEG-10 Myristyl Adipate | – | –
Di-PPG-3-PEG-4 Cetyl Ether Adipate | show anti-irritating activity, with the magnitude of activity being substantially greater | – | – | –
Di-PPG-3-PEG-4 Myristyl Ether Adipate | – | – | substantially reduces cell death | dramatic reduction in the irritation potential
